Test results taken from patent US6475719B1, “Determination of factors affecting gene regulation and/or gene replication” (priority 1989, dated 2002).

Key:
B. subtilis 1A40 cells = assay: Light emission, click beetle luciferase (pCSS962), IPTG induced; type: cell-based, Bacillus subtilis; conditions: incubation 2 hours at 30° C.; FIG. 11b
Procedure: Using this construction, the production of luciferase can be turned on in B. subtilis by simple addition of IPTG, which binds to the lac repressor coded by the helper plasmid pBL1 present in the same cell. After IPTG binds to the repressor, the repressor cannot bind to the DNA region between phage T5 promoter and the luciferase gene thus allowing the expression of luciferase. Cells containing both plasmids were cultured overnight in 2×TY containing erythromycin (10 μg/ml, to keep pBL1 in the cell) and kanamycin (10 μg/ml, to keep pCSS952 in the cell). A suitable dilution was made and different amounts of antibiotic were added to the cells. After an incubation period of 2 hours at 30° C., the tubes were measured for light emission after addition of 1 mM D-luciferin substrate in 0.1 M Na-citrate. As shown in FIG. 11b a low amount of 0.1 ug/ml ampicillin and even lower amounts of oxytetracyclin and streptomycin can be detected.

metallothioneins = conditions: cadmium added to growth medium to 4×10^−6 molar; eucaryotic cells; cited from earlier work
[1] = system: E. coli pCSS112/K-12 HI trp(c1857); assay: Light production, bacterial luciferase under PL promoter (pCSS112); type: cell-based, Escherichia coli; conditions: concentration in the measuring cuvette; 20 min at 30° C., 42° C. for 10 minutes
Procedure: A comparison is made between plasmids where the expression of bacterial luciferase genes are controlled by either lac (slow) or PL promoter (fast) promoters. E. coli clone pCSS112/K-12 HI trp(c1857) was grown overnight in 2×TY medium containing ampicillin 100 μg/ml. After this a suitable dilution was made in HBSS-buffer or in milk and 500 μl of this was added to 3 ml luminometer tubes. The tubes were equilibrated to 30° C. and different amounts of various toxic substances were added to tubes. Tubes were kept at 30° C. for 20 min, after which the temperature was shifted to 42° C. for 10 minutes. Thereafter the tubes were removed to luminometer chamber which had been equilibrated to 30° C. for automated measurement. As a comparison, an E. coli JM103 clone containing plasmid pCSS108 was used as a control. The control cells were treated similarly but without the heat-shock step. Messanger RNA and protein synthesis were induced in the control cells by adding IPTG to 1 mM. […] In case of chloramphenicol, the kinetics of light production have been shown in FIG. 11a when plasmid pCSS112 in E. coli K-12 HI trp(c1857) strain is used.
The following examples show detection of substances affecting other biosynthetic routes and metabolism of cells. […]
The following figures show the effect of each tested substance as measured by light production. […]

[2] = system: E. coli pCSS123/JM103 cells; assay: Change in plasmid copy number: total DNA from heat-treated cells, agarose gel; type: cell-based, Escherichia coli; conditions: 42° C. for one hour; tested at 0, 1, 10 and 100 μg/ml; FIG. 8
Procedure: The plasmid pCSS123 described in the instant invention is a runaway-replication plasmid, in which a change in copy number can be obtained by shifting the temperature (FIG. 8). The effect of nalidixic acid, an agent known to inhibit DNA replication of cell DNA and especially of plasmid pCSS123 DNA, is shown in FIG. 8.
E. coli pCSS123/JM103 cells were cultivated in 20 ml of 2×TY at 30° C. in four Erlenmeyer bottles until the absorbance measured at 600 nm was 0.3. Nalidixic acid, a known inhibitor of DNA replication, was added to a final concentration of 0, 1, 10 and 100 μg/ml. Parallel samples of 1.5 ml from each bottle were immediately withdrawn to 15 ml tubes and kept at 30° C. for 20 min. The tubes were transferred to 42° C. for one hour and the bottles were left at 30° C. After one hour, both the tubes and the bottles were kept for an additional hour at 30° C. in a shaker. Total-DNA was extracted from 1.5 ml of culture.
Cells were centrifuged and the pellets were suspended in 500 μl 50 mM TRIS-HC1, pH 8.0, 50 mM EDTA. Cells were kept in an ice bath for 30 min and 50 μl of lysozyme (10 mg/ml) was added and kept in an ice bath for 45 min. One hundred μl of STEP solution (0.5% SDS, 50 mM TRIS-HC1, pH 7.5, 0.4 M EDTA) was added and kept at 50° C. for 60 min. After this, 600 μl of phenol was added and the tubes were gently mixed for 5 min and centrifuged 10 min at 12000×g. […]

[3] = system: E. coli pCSS123/JM103 cells; assay: Light production by cells with runaway-replication plasmid pCSS123; type: cell-based, Escherichia coli; conditions: 20 min at 30° C., 42° C. one hour, IPTG 1 mM; FIG. 9a
Procedure: E. coli pCSS123/JM103 cells grown overnight were diluted 1:1000. Diluted cells in 2×TY were taken (0.5 ml) and various amounts of antibiotics or other toxic substances were added. These solutions were incubated 20 min at 30° C. After this the samples were transferred to 42° C. for one hour. Each tube was thereafter incubated at 30° C. in a waterbath and IPTG was added to 1 mM and n-decanal to 0.01%. The tubes were transferred to an automated light-gathering device, i.e., luminometer 1251 (LKB-Wallac, Turku, Finland) whose measuring chamber had been equilibrated to 30° C. Measurement of light emission by the cells was done with the auto-mode program so that each tube was automatically measured every two minutes. Data were collected in the memory of the computer for later analyses. […] For clarity reasons only two concentrations of chloramphenicol were compared to the untreated control.

E. coli pCSS123/BW322 = conditions: heat induced at 42° C. for 25 minutes; FIG. 9d
Procedure: Freeze-dried E. coli pCSS123/BW322 were reconstituted with 1.0 ml of 2×TY and 45 μl of this was diluted 1:10 with 2×TY. Five μl of trimethoprim dilutions were added and kept at room temperature for 25 minutes. Cells were heat induced at 42° C. for 25 minutes and equilibrated to 30° C. in a water bath for 10 minutes. n-decanal was added to 0.001% and light production was measured using a LKB-Wallac 1250 manual luminometer. Same concentrations of trimethoprim together with reconstituted, freeze-dried cells which were not heat-treated acted as controls.

In the case of `CC1(C)S[C@@H]2[C@H](NC(=O)[C@H](N)c3ccccc3)C(=O)N2[C@H]1C(=O)O` [ampicillin], the “amount that can be detected by light emission” value (B. subtilis 1A40 cells) is reported as 0.1 µg/mL.

In the case of `[Cd]` [cadmium], the “increase in the production of metallothioneins” value (metallothioneins) is given as “over fifty”.

With `O=C(N[C@H](CO)[C@H](O)c1ccc([N+](=O)[O-])cc1)C(Cl)Cl` [chloramphenicol] the “lowest concentration giving differences in measured activity (light production) from the start of measurement” value [1] was 0.1 µg/mL.

For `CCn1cc(C(=O)O)c(=O)c2ccc(C)nc21` [nalidixic acid], the “amount of nalidixic acid in whose presence DNA content was unaffected (no heat-induced increase of plasmid DNA)” value [2] was at least 1 µg and the “amount that can be detected very quickly by light emission” value [3] was 2 µg.

In the case of `COc1cc(Cc2cnc(N)nc2N)cc(OC)c1OC` [trimethoprim], the “sensitivity of detection by light production” value (E. coli pCSS123/BW322) is reported as “sensitivity of the assay is very high”.
